Measurements published in ChEMBL document CHEMBL1201862, “PubChem BioAssay data set” (2004).
Activity calls are given as the source filed them.

Assays:
[1] = biological target: T1, Endoplasmic reticulum aminopeptidase 1 (Homo sapiens, UniProt Q9NZ08); assay: inhibition of human ERAP1 enzyme activity – biochemical, cherry-pick, set 2, plate reader, dose response (AID 743314)
[2] = biological target: T1, Endoplasmic reticulum aminopeptidase 1; assay: blocking ERAP1 cleavage of leucine-AMC substrate – biochemical, fluorescence plate reader, dry powder, dose response (AID 1117292); type: functional
[3] = biological target: Cytochrome P450 2C19 (Homo sapiens, UniProt P33261); assay: Cytochrome panel assay with activity outcomes. Panel member name: p450-cyp2c19 Compounds with AC50 equal or less than 10 uM are considered active; type: functional
[4] = viability inhibitors of stage V gametocytes – luminescence, dose response (AID 1117278); type: functional, cell-based;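 further: gametocytes exposed to compound for 24 hours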
[5] = viability loss in human Jurkat cells – cell-based, luminescence, cytotoxicity control for P. falciparum gametocyte viability project, dose response (AID 1117277); type: functional;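 further: potency reflects loss of cellular ATP meaning fewer viable cells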
[6] = biological target: T2, Cytochrome P450 1A2 (Homo sapiens, UniProt P05177);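 further: PubChem cytochrome P450 panel assay, CYP1A2 panel member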
T2 sequence (P05177 whole entry): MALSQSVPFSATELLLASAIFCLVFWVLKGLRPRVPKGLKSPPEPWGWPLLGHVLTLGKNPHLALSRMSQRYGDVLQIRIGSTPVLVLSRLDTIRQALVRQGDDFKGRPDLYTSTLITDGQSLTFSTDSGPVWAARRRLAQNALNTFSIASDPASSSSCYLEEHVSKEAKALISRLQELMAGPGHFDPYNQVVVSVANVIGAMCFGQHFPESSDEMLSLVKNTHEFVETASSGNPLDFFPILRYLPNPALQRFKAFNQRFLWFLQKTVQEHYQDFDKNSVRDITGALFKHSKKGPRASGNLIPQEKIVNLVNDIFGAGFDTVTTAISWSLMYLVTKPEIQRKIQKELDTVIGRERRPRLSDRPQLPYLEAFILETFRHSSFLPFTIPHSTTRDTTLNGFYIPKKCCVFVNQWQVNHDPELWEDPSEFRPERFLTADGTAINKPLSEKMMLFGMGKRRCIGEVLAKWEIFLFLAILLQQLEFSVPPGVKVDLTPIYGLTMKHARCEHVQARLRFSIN

[7] = test system: Vero; assay: viability of Vero cells under compound – cytotoxicity control for flavivirus capping enzyme inhibitors (AID 588742); type: functional; conditions: Chlorocebus sabaeus
[8] = viability loss in THP-1 monocytes – THP-1 cells, cytotoxicity control for Vif-APOBEC3G degradation inhibitor project, dose response (AID 1117359); type: functional; conditions: THP-1
[9] = biological target: Glutathione-S-transferase (Schistosoma japonicum, UniProt Q26513); assay: GST-antibody interaction or FRET quenching – biochemical, TR-FRET, artefact control for Vif-APOBEC3G degradation inhibitor project, dose response (AID 1117362); type: functional
[10] = reduction of Shn3 3'UTR-driven luciferase in osteoblasts – cell-based, Clone20 osteoblasts, firefly luciferase, cherry-picked, dose response (AID 624132); type: functional;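 further: firefly luciferase luminescence from reporter carrying the Shn3 3'UTR in osteoblasts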
[11] = loss of viability in HepG2 cells – cell-based, CellTiter-Glo, cherry-picked, cytotoxicity control for Shn3 inhibitor project, dose response (AID 624134); type: functional
[12] = biological target: T3, DNA repair protein RAD52 homolog (Homo sapiens, UniProt P43351); type: functional, biochemical
T3 sequence (P43351 whole entry): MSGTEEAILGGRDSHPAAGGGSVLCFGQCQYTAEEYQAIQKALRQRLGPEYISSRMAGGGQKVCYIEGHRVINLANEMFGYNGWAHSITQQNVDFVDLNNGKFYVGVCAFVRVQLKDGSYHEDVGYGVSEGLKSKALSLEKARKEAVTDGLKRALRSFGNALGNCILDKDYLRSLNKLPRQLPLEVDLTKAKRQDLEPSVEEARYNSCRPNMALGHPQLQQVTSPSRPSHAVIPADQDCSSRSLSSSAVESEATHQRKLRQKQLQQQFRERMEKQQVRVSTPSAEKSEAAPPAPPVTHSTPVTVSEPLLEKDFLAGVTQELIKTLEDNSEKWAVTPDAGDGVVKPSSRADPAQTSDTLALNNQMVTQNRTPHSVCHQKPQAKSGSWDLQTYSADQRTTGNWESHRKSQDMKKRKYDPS

[13] = biological target: E3 ubiquitin-protein ligase UHRF1 (Homo sapiens, UniProt Q96T88); assay: Counterscreen for inhibitors of 5-meCpG-binding domain protein 2 (MBD2): TRFRET-based biochemical high throughput dose response assay to identify inhibitors of binding of ubiquitin-like with PHD and ring finger domains 1 (UHRF1) to methylated oligonucleotide.
[14] = test system: HEK293; assay: cells; conditions: Homo sapiens
[15] = test system: HEK293; assay: cells; conditions: Homo sapiens; remark: listed apart in the source
[16] = biological target: Paired box protein Pax-8 (Homo sapiens, UniProt Q06710); assay: PAX8 transcriptional activity inhibition in RMG-I – RMG-I cells, luciferase, cherry-pick, dose response (AID 687027); type: functional, cell-based;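 further: luciferase reporter driven by Pax8 target thyroperoxidase promoter measured by SteadyGlo luminescence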
[17] = toxicity toward immortalized ovarian surface epithelium – cell-based, plate reader, dry powder samples, cytotoxicity control for PAX8 inhibitor project, dose response (AID 743045); type: functional
[18] = viability loss in A549 lung cells – cell-based, 24 h, CellTiter-Glo luminescence, cherry-picks, cytotoxicity control, dose response (AID 1053115); type: functional; conditions: A549, 24 h
[19] = OVCAR-3 cell viability loss – plate reader, dry powder samples, PAX8 inhibitor project, dose response (AID 743044); type: functional, cell-based
[20] = IGROV1 cell killing – plate reader, dry powder samples, PAX8 inhibitor project, dose response (AID 743043); type: functional, cell-based; conditions: IGROV-1
[21] = general mammalian cell viability loss – inhibitor set, cherry-pick, set 2, cytotoxicity control for miR-122 modulator project, dose response (AID 720697); type: functional, cell-based
[22] = general mammalian cell viability loss – activator set, cherry-pick, cytotoxicity control for miR-122 modulator project, dose response (AID 720690); type: functional, cell-based;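 further: HEK293T human cells scored for general mammalian cytotoxicity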
[23] = OVCAR8 cell viability loss – plate reader, dry powder samples, PAX8 project, dose response (AID 743197); type: functional, cell-based; conditions: OVCAR-8
[24] = lung carcinoma cell viability loss – CellTiter-Glo luminescence, dry powder, set 17, dose response (AID 1117284); type: functional, cell-based; conditions: A549

T1 sequence (Q9NZ08 whole entry): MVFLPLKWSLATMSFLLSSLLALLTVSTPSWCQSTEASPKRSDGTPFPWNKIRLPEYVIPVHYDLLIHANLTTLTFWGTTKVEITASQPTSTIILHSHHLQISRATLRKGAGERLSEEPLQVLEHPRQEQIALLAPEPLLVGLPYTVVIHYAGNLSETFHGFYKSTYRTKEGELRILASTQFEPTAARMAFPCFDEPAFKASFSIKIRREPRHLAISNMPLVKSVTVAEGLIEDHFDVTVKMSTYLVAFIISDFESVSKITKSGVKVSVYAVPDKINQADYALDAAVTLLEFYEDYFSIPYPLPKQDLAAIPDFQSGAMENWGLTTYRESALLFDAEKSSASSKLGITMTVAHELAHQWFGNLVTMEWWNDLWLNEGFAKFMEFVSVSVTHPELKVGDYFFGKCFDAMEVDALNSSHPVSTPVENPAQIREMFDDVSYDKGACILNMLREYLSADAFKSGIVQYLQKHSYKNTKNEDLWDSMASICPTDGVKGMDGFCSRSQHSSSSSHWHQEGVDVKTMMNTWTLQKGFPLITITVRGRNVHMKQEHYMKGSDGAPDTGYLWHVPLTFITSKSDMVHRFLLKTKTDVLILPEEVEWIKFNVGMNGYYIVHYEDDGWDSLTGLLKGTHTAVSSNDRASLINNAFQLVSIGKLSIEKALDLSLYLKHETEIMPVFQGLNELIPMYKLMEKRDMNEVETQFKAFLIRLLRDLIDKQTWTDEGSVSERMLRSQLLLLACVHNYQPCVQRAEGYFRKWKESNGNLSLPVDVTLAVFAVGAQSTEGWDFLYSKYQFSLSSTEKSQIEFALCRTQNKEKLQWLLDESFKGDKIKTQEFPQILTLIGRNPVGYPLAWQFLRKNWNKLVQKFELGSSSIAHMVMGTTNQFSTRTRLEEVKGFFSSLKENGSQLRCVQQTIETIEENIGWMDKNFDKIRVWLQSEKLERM
Sequence of Glutathione-S-transferase (Q26513 whole entry): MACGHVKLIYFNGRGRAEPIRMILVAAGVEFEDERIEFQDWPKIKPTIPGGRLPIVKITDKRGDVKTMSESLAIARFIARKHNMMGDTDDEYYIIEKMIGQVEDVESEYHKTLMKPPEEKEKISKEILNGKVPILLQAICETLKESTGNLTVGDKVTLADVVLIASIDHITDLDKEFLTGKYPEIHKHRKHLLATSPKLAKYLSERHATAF
Sequence of E3 ubiquitin-protein ligase UHRF1 (Q96T88 whole entry, the tested form may be a part): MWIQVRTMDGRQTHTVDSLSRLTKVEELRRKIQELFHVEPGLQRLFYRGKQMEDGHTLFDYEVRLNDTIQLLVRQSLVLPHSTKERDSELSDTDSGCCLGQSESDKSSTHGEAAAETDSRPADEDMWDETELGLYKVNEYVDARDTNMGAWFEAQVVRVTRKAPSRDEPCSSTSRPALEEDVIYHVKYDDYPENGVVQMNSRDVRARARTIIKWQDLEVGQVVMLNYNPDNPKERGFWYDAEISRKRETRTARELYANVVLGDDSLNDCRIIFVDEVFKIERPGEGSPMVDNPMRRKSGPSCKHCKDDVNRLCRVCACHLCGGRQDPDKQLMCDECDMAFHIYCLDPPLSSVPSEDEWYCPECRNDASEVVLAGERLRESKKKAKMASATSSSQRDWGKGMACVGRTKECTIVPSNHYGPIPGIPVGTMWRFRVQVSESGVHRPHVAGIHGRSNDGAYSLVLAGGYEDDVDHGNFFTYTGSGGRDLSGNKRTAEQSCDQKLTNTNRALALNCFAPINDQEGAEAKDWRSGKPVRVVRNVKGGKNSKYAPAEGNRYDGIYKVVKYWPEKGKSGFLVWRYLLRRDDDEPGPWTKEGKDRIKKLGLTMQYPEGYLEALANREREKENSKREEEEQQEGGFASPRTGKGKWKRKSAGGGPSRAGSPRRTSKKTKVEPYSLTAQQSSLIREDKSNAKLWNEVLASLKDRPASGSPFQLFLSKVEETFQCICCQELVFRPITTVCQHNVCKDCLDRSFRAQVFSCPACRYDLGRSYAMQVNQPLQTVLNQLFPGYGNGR
Sequence of Cytochrome P450 2C19 (P33261 whole entry): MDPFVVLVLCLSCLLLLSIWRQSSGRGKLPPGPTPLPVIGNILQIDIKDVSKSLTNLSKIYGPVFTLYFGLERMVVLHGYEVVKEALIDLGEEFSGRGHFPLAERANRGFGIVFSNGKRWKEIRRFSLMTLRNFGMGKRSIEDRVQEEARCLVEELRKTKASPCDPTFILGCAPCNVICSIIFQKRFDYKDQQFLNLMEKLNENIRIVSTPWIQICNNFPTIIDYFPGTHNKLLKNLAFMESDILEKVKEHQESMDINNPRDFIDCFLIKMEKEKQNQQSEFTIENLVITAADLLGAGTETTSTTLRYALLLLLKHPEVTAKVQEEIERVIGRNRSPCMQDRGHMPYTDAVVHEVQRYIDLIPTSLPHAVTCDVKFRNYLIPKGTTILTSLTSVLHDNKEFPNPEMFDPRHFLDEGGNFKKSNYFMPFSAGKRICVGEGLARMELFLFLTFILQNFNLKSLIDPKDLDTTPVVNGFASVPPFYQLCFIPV
Sequence of Paired box protein Pax-8 (Q06710 whole entry): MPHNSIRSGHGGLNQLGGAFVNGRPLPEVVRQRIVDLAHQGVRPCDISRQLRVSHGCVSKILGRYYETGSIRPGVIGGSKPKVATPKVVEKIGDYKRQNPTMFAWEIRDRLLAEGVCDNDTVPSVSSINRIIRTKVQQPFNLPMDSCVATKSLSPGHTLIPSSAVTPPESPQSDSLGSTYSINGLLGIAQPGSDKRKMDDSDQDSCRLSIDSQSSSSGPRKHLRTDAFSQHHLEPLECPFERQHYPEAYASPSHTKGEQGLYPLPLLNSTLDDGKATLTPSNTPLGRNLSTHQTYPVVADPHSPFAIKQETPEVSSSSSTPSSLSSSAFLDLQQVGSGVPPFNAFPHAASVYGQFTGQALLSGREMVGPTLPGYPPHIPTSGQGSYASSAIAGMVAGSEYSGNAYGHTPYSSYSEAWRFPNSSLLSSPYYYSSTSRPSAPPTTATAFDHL

CC(=O)N1CCN(C(=O)C2(NC(=O)Nc3ccc(C)cc3)CCCCC2)CC1
active: AC50 [1] 8.21 µM | AC50 [2] 24.8 µM

CCCCC1(C)NC(=O)c2c(C)sc(C(=O)OCC)c2N1 (centres undefined)
inactive: IC50 [4] > 109 µM | IC50 [5] > 83.3 µM
inconclusive: AC50 [3] 2.24 µM | AC50 [6] 14.1 µM

CC[n+]1c(/C=C2/C=C(C)CC(C)(C)C2)sc2ccc(OC)cc21
active: CC50 [7] > 40 µM | CC50 [8] 4.13 µM | IC50 [9] > 100 µM

COc1ccc(C(=O)NCCN(C)C)c2nc3ccccc3cc12
inactive: EC50 [14] > 59.5 µM | EC50 [15] > 59.5 µM
active: AC50 [10] 5.78 µM | AC50 [11] 5.16 µM | AC50 [12] 1.04 µM | IC50 [13] 9.07 µM

C[C@H](O)C#Cc1ccc2c(c1)O[C@H](CN(C)Cc1ccc(-c3ccccc3)cc1)[C@@H](C)CN([C@@H](C)CO)S2(=O)=O
active: AC50 [16] 3.42 µM | AC50 [17] 3.37 µM | AC50 [19] 10.7 µM | AC50 [20] 15.9 µM | AC50 [21] 1.58 µM | AC50 [22] 15.2 µM | AC50 [23] 43.2 µM | AC50 [24] 37.9 µM
inactive: AC50 [18] > 60 µM
